Reference: patent publication US20250312271A1, “GSK-3-BETA INHIBITOR-LOADED POLYMERIC SCAFFOLDS FOR THE TREATMENT OF MUSCLE INJURIES” (Rutgers, The State University of New Jersey, priority 2024, published 2025)
Entries after “also recorded” stand apart in the source; their conditions may differ.

Assays:
[1] = test system: 3T3-L1 preadipocytes; settings: cited from earlier work
[2] = test system: PPARγ; settings: 3T3-L1 preadipocytes; cited from earlier work
[3] = test system: bone marrow-derived human mesenchymal stem cells (hMSCs); experiment: Oil Red O quantification of lipid formation in adipogenic hMSC cultures; assay type: cell-based
Procedure: (§1) Rosiglitazone (AVANDIA®) was added to the adipogenic medium at a final concentration of 1 μM before use. A PrestoBlue™ assay and a LIVE/DEAD viability/cytotoxicity kit were utilized to assess cell viability. Live and dead cell counts were obtained using a Celigo Image Cytometer. Cells were fixed in 4% PFA (paraformaldehyde) and stained with Oil Red O to measure lipid formation as a sign of adipocyte differentiation. Lipid formation was quantified by assessing the absorbance of Oil Red O at 515 nm.

[4] = test system: hMSCs; experiment: Live/Dead quantification of hMSCs; assay type: cell-based, human; settings: day 7, 14, 18, 0.5, 1.0, 1.5 μM
Procedure: as §1

[5] = test system: ADSCs; experiment: Live/Dead quantification of ADSCs; assay type: cell-based
Procedure: as §1

[6] = test system: hMSCs; experiment: PrestoBlue assay of hMSCs; assay type: cell-based, human; settings: day 7, 14, 18, 0.5, 1.0, 1.5 μM
Procedure: as §1

[7] = test system: human skeletal muscle cells (hSkMCs); experiment: Morphological assessment of lipid droplets in hSkMCs cultured with scaffolds; assay type: cell-based; settings: drug in both GelMA and PLGA layers
Procedure: Human skeletal muscle cells ([…]) (5,000 cells/cm^2) were cultured in ADM and myogenic differentiation media (myodiff) with scaffolds at 200 rpm, with and without the drug in GelMA and PLGA layers to evaluate the relationship between drug concentrations and lipid formation resulting from the drug's release from the scaffold. PrestoBlueTM assay assessed cell viability.

[8] = test system: adipose-derived stem cells (ADSCs); experiment: Oil Red O quantification of lipid formation in adipogenic ADSC cultures; assay type: cell-based
Procedure: as §1

[9] = test system: ADSCs; experiment: PrestoBlue assay of ADSCs; assay type: cell-based; settings: day 7, 14, 21, 0.5, 1.0, 1.5 μM
Procedure: as §1

[10] = CHIR99021 release from polymeric scaffolds (HPLC); assay type: physicochemical
Procedure: In this study, GSK3β inhibitor-loaded scaffolds were fabricated via electrospinning and hydrogel formation. Pluronic F127 (0.08 g) was dissolved in 1.0 ml hexafluoroisopropanol (HFP) before adding the GSK3β inhibitor. Separately, poly(lactic-co-glycolic acid) PLGA (50:50) (16%, w/v) was dissolved in HFP. The polymer solutions (PLGA/CHIR-F127 or PLGA/CHIR) were electrospun at a flow rate of 1.0 ml/h with a 14 cm distance from the 18G needle tip to the cylindrical drum, and voltages +11/−2 kV were applied. Samples (13.5 mm diameter) punched out from scaffolds were immersed in GelMA (gelatin methacrylate) (5%, w/v)/CHIR solution for 20 seconds, then crosslinked using Lithium Phenyl (2,4,6-Trimethylbenzoyl) Phosphinate (LAP, 0.5% w/v) for 2 minutes on each side under 405 nm UV. Scaffolds comprise a rapidly degrading layer of GelMA for inhibitor delivery to the injury site, and a slow-degrading layer of PLGA to provide prolonged support for tissue regeneration.
Samples were submerged in water on a plate shaker at 400 rpm, with 200 μL replaced by fresh water at each time point.

Cc1cnc(-c2cnc(NCCNc3ccc(C#N)cn3)nc2-c2ccc(Cl)cc2Cl)[nH]1 [CHIR99021]
differentiation of 3T3-L1 preadipocytes (Oil Red O staining) [1]: blocked the differentiation
PPARγ expression [2]: induced
difference in lipid formation in groups treated with CHIR99021 ([3]; hMSCs at 18 day, One-Way ANOVA, P=0.0000018): significant difference
lipid droplet formation (Oil Red O) ([3]; hMSCs in ADM, CHIR99021 0.5, 1.0, 1.5 μM): decreases
viability (Live/Dead) [4]: does not negatively alter
viability (Live/Dead) ([5]; day 7, 14, 21, 0.5, 1.0, 1.5 μM): does not negatively alter
percent of dead cells, ADSCs in GM versus in 1.5 μM CHIR ([5]; day 21, 1.5 μM CHIR): No significant difference
cellular metabolic activity (PrestoBlue) [6]: does not negatively alter
lipid droplet suppression, CHIR99021 in both GelMA and PLGA layers [7]: enhances this effect
difference in lipid formation in groups treated with CHIR99021 ([8]; ADSCs at 21 days, One-Way ANOVA, P=0.00003): significant difference
lipid droplet formation (Oil Red O) ([8]; ADSCs in ADM, CHIR99021 0.5, 1.0, 1.5 μM): decreases; also recorded: inhibited lipid formation
cellular metabolic activity (PrestoBlue) [9]: does not negatively alter
release kinetics profile ([10]; from polymeric scaffolds (PLGA nanofibers), in water): first-order
release ([10]; within 72 hours, from polymeric scaffolds): ~70%
